From patent US20240245702A1, “Inhibition of Lysine Demethylase 1 (Lsd1) Induces Differentiation of Hair Cells” (Massachusetts Eye and Ear Infirmary, priority 2018, published 2024)

How the values were obtained:
Assay type in all cases: cell-based, mouse
[1] = test system: Lgr5-expressing cochlear progenitors cells (LCPs); assay: Proliferation of Lgr5+ cochlear progenitors (LCPs) in organoid culture; details: first 10 days in culture, Lgr5-nGFP mice cells, combined with CHIR99021
Protocol: Isolation and expansion of inner ear Lgr5+ cells. A recently published protocol was used to derive organoids from inner ear stem cells [also referred to as Lgr5+ cochlear progenitors (LCPs) (McLean et al., 2017). Briefly, the organ of Corti was dissected from neonatal mice (postnatal days 2-5) in Hank's balanced salt solution and treated with Cell Recovery Solution (Corning) for 1 hour. The cochlear epithelium was then peeled from the underlying mesenchyme, collected and treated with TrypleE for 20 minutes at 37° C. The single cells were mechanically triturated, filtered ([…] cell strainer) and suspended in a Matrigel (Corning) dome for 3D culture. The cells were seeded in a 24-well plate, specifically at one cochlea per well of a 24-well plate.
(§1) For the drug screening experiments, the expanded cells were passaged into a 96 well plate to test varying drug combinations. All experiments were done in triplicate at minimum. Atoh1-nGFP cells were quantified after 10 days in culture. The cell colonies were incubated in Cell Recovery Solution for 1 hour and dissociated into single cells using TrypleE. The total cell number and percentage of GFP+ cells were quantified using fluorescence activated cell sorting (FACS).
We screened a collection of Lsd1 inhibitors over the first 10 days in culture (FIGS. 9A and 9B) to examine their effect on proliferation of LCPs (FIGS. 9C and 9D). […]

Atoh1-nGFP cells = assay: Hair cell differentiation of LCP organoids, FACS for Atoh1-nGFP cells; details: 10 days of differentiation (D10), standard differentiation treatment (CHIR99021 and LY411575) without or with pargyline
Protocol: (§2) Differentiation of LCPs into a hair cell lineage. […] To analyze the effect of the Lsd1 inhibitors, the LCPs were treated with the small molecules combined with a differentiation drug cocktail, pargyline and CHIR99021 or CHIR99021 at 1, 2, 4, and 10 days (McLean et al., 2017).
as §1
(§3) We next tested the effect of Lsd1 inhibition on hair cell differentiation. In this assay, after the cells were expanded into organoids during the initial proliferation phase, differentiation was initiated using the combination of CHIR99021 and LY411575 and allowed to progress for 10 days (DO to D10). Organoids were monitored for the development of hair cells using FACS and qRT-PCR. […] Conversely, Myo7a expression increases throughout development and is a key marker of mature hair cells. All hair cell markers tested were elevated with the exception of Atoh1, which had begun to decrease 10 days after the initiation of differentiation.

Atoh1 = assay: qRT-PCR of Atoh1 in differentiated LCP organoids; details: D10, pargyline-treated cells relative to standard treatment
Protocol: as §2
(§4) RNA extraction and PCR. For the LCPs, the organoids were treated with Cell Recovery Solution for at 1 hour and TrypleE for 20 minutes, then frozen in RLT buffer. RNA extractions were performed using the RNeasy Micro Kit (QIAGEN) and cDNA generated using ImProm-II Reverse Transcription Kit (Promega). TaqMan Real-Time PCR was performed in triplicates using the TaqMan Gene Expression Master Mix (ThermoFisher Scientific) on a StepOne Real-Time PCR machine (ThermoFisher Scientific). Ordinary One-way Anova was used to assess statistical significance. A minimum of three biologically distinct samples were analyzed for each condition.
as §3, with “All hair cell markers tested were elevated with the exception of Atoh1, which had begun to decrease 10 days after the initiation of differentiation.” left out

Myo7a = assay: qRT-PCR of Myo7a in differentiated LCP organoids; details: D10, pargyline-treated cells relative to standard treatment, p<0.05
Protocol: as §2, §4
as §3, with “All hair cell markers tested were elevated with the exception of Atoh1, which had begun to decrease 10 days after the initiation of differentiation.” left out

LCPs = assay: RNA sequencing of LCP organoids with and without pargyline
Protocol: RNA sequencing. After RNA extractions were performed using the RNeasy Micro Kit (QIAGEN), the library preparation and RNA-sequencing was performed at the Dana Farber Cancer Institute Molecular Biology Core Facility. In brief, cDNA was synthesized from 2.5 ng of RNA using SMARTer V4 Kit (Clontech). Following fragmentation using M220 Focused-Ultrasonicator (Covaris), 2 ng of sheared cDNA was taken for library preparation using ThruPLEX DNA-seq kit (Rubicon Genomics). NextSeq500 Single-End 75 bp (SE75) Sequencing (Illumina) was performed on all 12 samples in one lane after they were indexed and pooled in equimolar to ensure 20-30 million reads per sample. Reads were aligned to mm10 augmented with Ensembl gene build 75 with STAR v2.5.2b (Dobin et al., 2013). Reads and alignments were assessed for quality using FastQC. Differential expression was evaluated using DESeq2. Genes were called differentially expressed when the absolute value of the fold change was >1.25 and FDR, was smaller than 0.05. Subsequent pathway analysis was performed using Ingenuity Pathway Analysis software (Qiagen).
The effect of pargyline on the differentiation of hair cells could be broad and we therefore evaluated its effect on the gene expression patterns of Lsd1 inhibitor-treated and untreated samples. The samples analyzed included the undifferentiated organoids following expansion (DO) and the differentiated organoids following 10 days of differentiation, with and without pargyline treatment (D10). […] In addition, 90% of the genes aligned to the genome and over 22,000 genes were detected in each sample. […] The times here refer to the beginning and end of differentiation and the finding was that most of the difference between samples was due to the 10 days of differentiation. Consistently, the principle component analysis (PCA) clustered the samples by the time of differentiation (responsible for 62% of the variation between samples) and the treatment (20% of the variation: FIG. 10B). Lsd1 inhibition in the presence of CHIR99021 altered gene expression and caused the pargyline-treated samples to cluster separately from those treated with CHIR99021 alone.
Differential expression analysis of the samples was also performed using DESeq2 (Love et al., 2014). […] We further compared the gene expression profiles of the samples. Compared to the undifferentiated (DO), approximately […]) and 3365 genes were differentially expressed in the D10 or D10+pargyline samples, respectively. The addition of pargyline compared to the untreated samples altered the expression of approximately 474 genes (padj<0.05, fold change >1.25).
Gene set enrichment analysis (GSEA) using gene sets associated with biological process gene ontology terms (Subramanian et al., 2005) was next performed to gain insight into the relevant pathways altered in this dataset. The analysis accounts for coordinated differential expression over pre-defined gene sets, instead of changes in individual genes. Pathways related to the cell cycle and proliferation were the most enriched after pargyline treatment, particularly the p53 and PI3/AKT, MAPK and RAS pathways (−0.503, −0.33). although these cells were in the differentiation phase. […] Here we present the top 15 differentially expressed hair cell receptor genes. […] Collectively, these findings corroborate increasing hair cell differentiation with Lsd1 inhibition.

LCP organoids = assay: Immunostaining of differentiated organoids for Atoh1 and Myo7a
From the text: Immunochemistry. […] Nuclei were visualized using DAPI (Vector Laboratories).

[2] = D10 with pargyline compared to untreated
[3] = pargyline-treated samples, p<0.05

C#CCN(C)Cc1ccccc1 [pargyline, N-Methyl-N-propargylbenzylamine]
proliferation of Lgr5 cells (LCP cell division) [1]: 26%
percentage of Atoh1-nGFP cells in culture (Atoh1-nGFP cells): 39%
mRNA levels of Atoh1 (Atoh1): no difference
Myo7a expression (Myo7a): significantly upregulated
genes differentially expressed compared to the undifferentiated (D0) (LCPs; D10+pargyline samples versus D0): ~3365 genes
genes downregulated (LCPs; [2]): 330 genes
genes upregulated (LCPs; [2]): 144 genes
genes with altered expression (LCPs; D10 with pargyline compared to untreated, padj<0.05, fold change >1.25): approximately 474 genes
gene set enrichment score, development of auditory receptors (GO:0060117) (LCPs; GSEA after pargyline treatment, p<0.1): 0.62
top 15 differentially expressed Wnt target genes: number downregulated (LCPs; [3]): 13 genes
top 15 differentially expressed Wnt target genes: number upregulated (LCPs; [3]): 2 genes
immunostaining for Atoh1 and Myo7a (LCP organoids): almost uniformly positive
